According to PubChem BioAssay (NCI):
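Values below derive from 48-hour exposures of cells grown in 96-well plates, with endpoints linearly interpolated between the two concentrations bracketing the appropriate inhibition level. TGI: concentration producing complete growth inhibition.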

How the values were obtained:
Assay in all cases: NCI-60 cell line screen, 48 h
HL-60(TB) leukemia = system: HL-60(TB) leukemia
SF-295 CNS = system: SF-295 CNS
CCRF-CEM leukemia = system: CCRF-CEM leukemia
OVCAR-5 ovarian = system: OVCAR-5 ovarian
NCI-H226 lung = system: NCI-H226 lung
SK-MEL-5 melanoma = system: SK-MEL-5 melanoma
TK-10 renal = system: TK-10 renal
HOP-92 NSCLC = system: HOP-92 NSCLC
SNB-75 CNS = system: SNB-75 CNS

SMILES	TGI (HL-60(TB) leukemia)	TGI (SF-295 CNS)	TGI (CCRF-CEM leukemia)	TGI (OVCAR-5 ovarian)	TGI (NCI-H226 lung)	TGI (SK-MEL-5 melanoma)	TGI (TK-10 renal)	TGI (HOP-92 NSCLC)	TGI (SNB-75 CNS)
OC1(c2ccc(Cl)cc2)c2ccccc2C2=NCc3ccccc3CN21 (stereo unspecified)	17.4 µM	28.8 µM	> 69.6 µM	26 µM	20.8 µM	33.6 µM	28.9 µM	41.4 µM	19.4 µM
CC12CCC(C1)C(C)(C)C2OC(=O)c1ccccc1C(=O)O (stereo unspecified)	> 100 µM	> 100 µM	–	> 100 µM	> 100 µM	> 100 µM	> 100 µM	> 100 µM	> 100 µM
CN(C)/C=N/S(=O)(=O)c1nn2c(C=O)c(-c3cc4ccccc4oc3=O)nc2s1	4.05 µM	> 100 µM	7.33 µM	> 84.3 µM	> 56.5 µM	12 µM	14.8 µM	19.2 µM	> 82.1 µM
O=C(NNCc1ccccc1O)c1ccccc1O	4.17 µM	17.4 µM	–	96.3 µM	> 100 µM	25.8 µM	> 100 µM	> 100 µM	> 100 µM
Cc1nc2sccn2c1C(=O)OCCOCCOCCOCCOC(=O)c1c(C)nc2sccn12	34 µM	> 100 µM	–	> 100 µM	> 100 µM	35.5 µM	> 100 µM	> 100 µM	–
CN1N(c2ccccc2)C(=O)C2=NC=C(C#N)C(=N)C21C (stereo unspecified)	–	> 100 µM	> 100 µM	> 100 µM	> 100 µM	> 100 µM	> 100 µM	> 100 µM	> 100 µM
O=[N+]([O-])c1ccc(-[n+]2ccc3ccccc3c2)c([N+](=O)[O-])c1	3.71 µM	28.5 µM	5.38 µM	23.9 µM	43.6 µM	6.56 µM	3.52 µM	5.29 µM	8.74 µM
C/C(NC(=O)c1ccccc1)=C(/C(=O)c1ccccc1)[C@@H]1OC(C)(C)O[C@@H]1[C@H]1COC(C)(C)O1	43.8 µM	> 100 µM	–	> 100 µM	> 100 µM	35.6 µM	> 100 µM	86.6 µM	–
CC(CC(C)(C)[N+](C)(C)C)[N+](C)(C)C (stereo unspecified)	> 100 µM	> 100 µM	> 100 µM	> 100 µM	> 100 µM	> 100 µM	> 100 µM	> 100 µM	> 100 µM
OCCNc1nc2c(N3CCCC3)nc(N3CCNCC3)nc2nc1NCc1ccccc1	32.8 µM	32.7 µM	30 µM	24.7 µM	35.2 µM	26.1 µM	28.7 µM	21.8 µM	26.8 µM
COc1cc([C@@H]2c3cc4c(cc3[C@@H](Nc3ccc(NC(=O)c5cc(NC(=O)c6cc([N+](=O)[O-])cn6C)cn5C)cc3)[C@H]3COC(=O)[C@H]23)OCO4)cc(OC)c1O	11.3 µM	> 100 µM	> 37.8 µM	99.6 µM	> 44.4 µM	> 33.5 µM	> 100 µM	> 39.2 µM	37 µM
CN1CCN(c2c(O)c3c(c(O)c2Cl)C(=O)C=CC3=O)CC1	0.332 µM	3.22 µM	0.41 µM	2.93 µM	4.08 µM	1.11 µM	1.58 µM	0.598 µM	3.56 µM
